Assay results: PubChem BioAssay (NCI)
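Each compound was tested at five concentrations against cells in 96-well plates for 48 hours. GI50 marks 50% less growth. TGI: total growth inhibition.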

Experiments:
Experiment in all cases: DTP human tumour cell line panel, 48 h
A549 NSCLC = system: A549 NSCLC
SK-MEL-2 melanoma = system: SK-MEL-2 melanoma
K-562 leukemia = system: K-562 leukemia
HCT-15 colon = system: HCT-15 colon
COLO 205 colon = system: COLO 205 colon
A498 renal = system: A498 renal
UACC-62 melanoma = system: UACC-62 melanoma
SNB-75 CNS = system: SNB-75 CNS
SR leukemia = system: SR leukemia
NCI/ADR-RES ovarian = system: NCI/ADR-RES ovarian

Row | SMILES | TGI (A549 NSCLC) | TGI (SK-MEL-2 melanoma) | TGI (K-562 leukemia) | TGI (HCT-15 colon) | TGI (COLO 205 colon) | TGI (A498 renal) | TGI (UACC-62 melanoma) | TGI (SNB-75 CNS) | TGI (SR leukemia) | GI50 (A549 NSCLC) | GI50 (SK-MEL-2 melanoma) | GI50 (K-562 leukemia) | GI50 (HCT-15 colon) | GI50 (COLO 205 colon) | GI50 (A498 renal) | GI50 (NCI/ADR-RES ovarian) | TGI (NCI/ADR-RES ovarian) | GI50 (UACC-62 melanoma) | GI50 (SNB-75 CNS)
1 | O=C1c2ccccc2C2(O)c3cc4ccccc4cc3OC12O (configuration not stated) | > 100 µM | > 100 µM | > 100 µM | > 100 µM | > 100 µM | > 100 µM | > 100 µM | > 100 µM | – | – | – | – | – | – | – | – | – | – | –
2 | CC(=O)n1c2c(c(=O)n1-c1ccccc1)S(=O)CCC2 (configuration not stated) | > 100 µM | > 100 µM | > 100 µM | > 100 µM | > 100 µM | > 100 µM | > 100 µM | > 100 µM | 22.8 µM | – | – | – | – | – | – | – | – | – | –
3 | CC1=C2CCCC2=C/C(=N/Nc2ccc([N+](=O)[O-])cc2[N+](=O)[O-])CC1 | > 100 µM | > 100 µM | > 100 µM | – | > 100 µM | – | > 100 µM | > 100 µM | > 100 µM | – | – | – | – | – | – | – | – | – | –
4 | O=[N+]([O-])c1ccc(-n2nnc(C3=NCCN3)c2-c2ccc(Cl)cc2)cc1 | > 100 µM | > 100 µM | > 100 µM | > 100 µM | > 100 µM | > 100 µM | > 100 µM | > 100 µM | > 100 µM | – | – | – | – | – | – | – | – | – | –
5 | O=c1n(-c2ccccc2)c(=O)n2n1C1C=CC2C2C(C1)C2(Cl)Cl (configuration not stated) | > 100 µM | > 100 µM | > 100 µM | > 100 µM | > 100 µM | > 100 µM | > 100 µM | > 100 µM | > 100 µM | – | – | – | – | – | – | – | – | – | –
6 | O=C(O)CSc1n[nH]c(-c2ccccc2)n1 | > 100 µM | > 100 µM | > 100 µM | > 100 µM | > 100 µM | > 100 µM | > 100 µM | > 100 µM | – | – | – | – | – | – | – | – | – | – | –
7 | COC1[C@@H](OC(C)=O)[C@@H](NC(=O)C(Cl)(Cl)Cl)C(I)[C@@H](N2C(=O)c3ccccc3C2=O)[C@H]1OC (some centres not stated) | > 100 µM | – | > 100 µM | > 100 µM | > 100 µM | > 100 µM | > 100 µM | > 100 µM | > 100 µM | – | – | – | – | – | – | – | – | – | –
8 | Cc1csc(Nc2nc(-c3cccc(Br)c3)nc(C(Cl)(Cl)Cl)n2)n1 | 7.28 µM | > 100 µM | > 100 µM | > 100 µM | > 23.3 µM | 2.47 µM | > 100 µM | > 27.9 µM | – | 1.61 µM | > 100 µM | > 24.9 µM | 4.95 µM | 0.855 µM | 1.06 µM | 5.22 µM | > 100 µM | 3.35 µM | 1.36 µM
9 | CCc1c(OC(C)=O)c2c(NC3OC(COC(C)=O)C(OC(C)=O)C(OC(C)=O)C3OC(C)=O)nc(OC)nc2oc1=O (configuration not stated) | > 100 µM | > 100 µM | > 100 µM | > 100 µM | > 100 µM | > 100 µM | > 100 µM | > 100 µM | – | – | – | – | – | – | – | – | – | – | –
10 | Cc1c(Cl)cccc1N1C(=O)C(Cl)=C(Cl)C1=O | > 100 µM | > 100 µM | > 31.6 µM | > 100 µM | > 100 µM | > 100 µM | > 100 µM | > 100 µM | 79.6 µM | – | – | – | – | – | – | – | – | – | –
11 | Cc1ccc(Cn2c(C)nc3c2C(=O)c2ccccc2C3=O)cc1 | 34.9 µM | 45.6 µM | > 100 µM | 60 µM | > 100 µM | – | 16.1 µM | 36.3 µM | > 100 µM | – | – | – | – | – | – | – | – | – | –
12 | CCC1C2C=CC(CC2)N1S(=O)(=O)c1ccc(C)cc1 (configuration not stated) | > 100 µM | 28.3 µM | > 100 µM | 73.5 µM | 54.5 µM | > 100 µM | 49.7 µM | – | 72.3 µM | – | – | – | – | – | – | – | – | – | –
13 | O=C(N/N=C1/C(=O)N(c2ccc(Cl)cc2Cl)C(=O)C(=O)C1c1nc2ccccc2o1)c1ccccc1O (configuration not stated) | > 100 µM | > 100 µM | > 100 µM | > 100 µM | > 100 µM | 88.2 µM | 48.6 µM | > 100 µM | > 100 µM | – | – | – | – | – | – | – | – | – | –
14 | COc1ccc(/C(=N\NC(=O)C(N)=O)C(c2ccc(OC)cc2)C2(O)C(=O)Nc3c(Cl)cccc32)cc1 (configuration not stated) | > 100 µM | > 100 µM | – | – | > 100 µM | – | > 100 µM | > 100 µM | – | – | – | – | – | – | – | – | – | – | –
15 | CC(C)=CCc1cc(O)cc2c1OC(C=C(C)C)C1=C2C(=O)C2=C(NCCS2(=O)=O)C1=O (configuration not stated) | 6.83 µM | 7.13 µM | 14.6 µM | 6.46 µM | 5.57 µM | 5.47 µM | 3.5 µM | 4.86 µM | – | 3.17 µM | 2.85 µM | 3.07 µM | 2.74 µM | 2.67 µM | 2.94 µM | > 16.7 µM | > 16.7 µM | 0.875 µM | 2.53 µM
16 | Cn1cnc([N+](=O)[O-])c1S(=O)(=O)Oc1ccccc1 | > 100 µM | 40.9 µM | 15.5 µM | > 28.4 µM | 3.29 µM | 38.1 µM | 32.2 µM | 34.9 µM | – | 38.1 µM | 15.5 µM | 2.52 µM | 2.74 µM | 1.68 µM | 16.8 µM | 21.7 µM | > 65.8 µM | 14.9 µM | 14.9 µM
17 | CC(=O)O[C@H]1CCC2[C@@H]3CCC4=C(O)c5nocc5C[C@]4(C)C3CC[C@@]21C (some centres not stated) | > 100 µM | > 100 µM | > 100 µM | > 100 µM | > 100 µM | > 100 µM | > 100 µM | > 100 µM | – | – | – | – | – | – | – | – | – | – | –
18 | O=C(NC(=O)c1cn(CCNCCO)c(=O)[nH]c1=O)OCc1ccccc1 | > 100 µM | – | > 100 µM | > 100 µM | > 100 µM | – | > 100 µM | > 100 µM | > 100 µM | – | – | – | – | – | – | – | – | – | –
19 | COc1ccc(-c2cc(-c3ccccc3)c(C#N)c(=O)n2C2OC(CO)C(O)C(O)C2O)cc1 (configuration not stated) | > 100 µM | – | > 100 µM | > 100 µM | > 100 µM | > 100 µM | > 100 µM | – | > 100 µM | – | – | – | – | – | – | – | – | – | –
20 | C=CCCCCCCCCCCC1(O)C=CC2=[N+](CCCCCN=C(N)N)CCCN21 (configuration not stated) | 24.6 µM | 47.2 µM | 15.9 µM | 18.6 µM | 13.9 µM | – | 28.9 µM | 25.9 µM | – | 5.06 µM | 21.3 µM | 2.76 µM | 4.87 µM | 2.78 µM | – | 22.2 µM | 85.6 µM | 13.3 µM | 8.62 µM
